Measurements: PMC11022729 (Advanced Science, 2024)

Key:
human D2S receptor = target: T1, human D2S receptor (Homo sapiens, UniProt P14416); experiment: [3H]-spiperone competition binding assay, D2
T1 construct: expressed in transfected cells; host or cells: CHO
Description: CHO cells stably expressing human dopamine D2short (D2R) and D3 receptor (D3R) were washed and harvested using PBS. […] The cell membrane homogenate was centrifuged (20 000 × g, 20 min, 4 °C), and the resulting cell pellet was resuspended in the binding buffer. Crude membrane extracts were kept at −80 °C until use. Before starting the experiments, cell membranes were thawed, homogenized by sonication (3 × 10 s), and stored in an ice‐cold binding buffer. […] Assays were performed at least in triplicate with appropriate concentrations ranging from 0.01 nM to 100 µM of the test compound. Non‐specific binding was determined using 10 µM haloperidol. By filtering through GF/B filters pretreated with 0.3% (m/v) polyethyleneimine, the bound radioligand was separated from free radioligand using a cell harvester. Radioactivity was measured using liquid scintillation counting. Data were evaluated using the GraphPad Prism 9 software (San Diego, CA, USA) with a nonlinear regression fit.

mice [1] = experiment: Observation of mouse behavior / signs of toxicity after systemic administration; format: in vivo
From the text: To prepare for in vivo studies, we investigated the pharmacokinetic properties of compound 6. […] For comparison, we determined the plasma and brain loxapine levels. […] Collectively, the pharmacological and pharmacokinetic profiles of compound 6 make it an excellent molecule for in vivo pharmacodynamic studies.
With regard to the safety profile, it should be considered that Slack is expressed in various neuronal populations in the CNS, and gain‐of‐function mutations of KCNT1 have been associated with epileptic encephalopathies in humans.^[ [46] ^] Limited information exists concerning the incidence of seizures during loxapine treatment. […] However, the epileptogenic potential of brain‐penetrant Slack activators such as compound 6 should be carefully assessed in the future.

mice [2] = experiment: DNFB model of allergic contact dermatitis (persistent itch); format: in vivo, mouse; settings: i.p. after the second DNFB exposure, vs vehicle
Description: (§1) We next assessed the efficacy of compound 6 in the treatment of chronic itching. […] These findings are important because they indicate that Slack activators can reduce existing itching.
To induce persistent itch, a model of allergic contact dermatitis^[ [32] ^] was used. The fur on the dorsolateral aspect of the neck was shaved under brief isoflurane anesthesia. Three to four days later, the shaved skin area was exposed to 100 µL of 0.15% 2,4‐dinitrofluorobenzene (DNFB) in acetone/olive oil (3:1). After 10–11 days, the skin was shaved again, and the DNFB solution was applied 3–4 days later (i.e., two painting sessions 14 days apart). Ninety minutes after the second DNFB application, the mice were habituated to a plexiglass cylinder (30 cm diameter) for 15 min. Compound 6 hydrochloride or vehicle was administered i.p., and 15 min later, spontaneous scratching was recorded over 30 min by videotaping.

mice [3] = experiment: MC903 model of persistent itch; format: in vivo, mouse; settings: i.p. at day 8, vs vehicle
Description: as §1
Chronic itching was induced using the MC903 model.^[ [48] ^] The fur on the dorsolateral aspect of the neck was shaved under brief isoflurane anesthesia. Five days later, 20 µL MC903 (0.2 mM; Calcipotriol, Tocris) solved in absolute ethanol was applied to the skin at the back of the neck under brief anesthesia for 7 consecutive days. On day 8, the mice were habituated for 30 min in a plexiglass cylinder (30 cm in diameter). Compound 6 hydrochloride or vehicle was administered i.p., and 15 min later, spontaneous scratching was recorded over 30 min by videotaping.

mice [4] = experiment: Pulse oximetry in conscious, freely moving mice; settings: 10 mg kg−1 i.p., observation period of 30 min
Description: To measure cardiovascular function, a pulse oximeter (MouseOX Plus, Starr Life Sciences Corp.) was used in conscious, freely moving mice. After three consecutive days of habituating the mice to the collar clip for at least 30 min, baseline measurements were performed. […] All the datasets were sampled at 1 Hz, error‐corrected according to the manufacturer's instructions, and averaged over 300 s for each time point.

mice [5] = experiment: Von Frey filament test; format: in vivo; settings: 10 mg kg−1 i.p., hindpaws, vs vehicle
mice [6] = experiment: Hargreaves test; format: in vivo; settings: 10 mg kg−1 i.p., hindpaws, vs vehicle
Description: An infrared heat source (intensity set to 25) was applied to the plantar surface of the hind paw, and the time until the animal elicited a withdrawal response was determined. Each hind paw was measured 4–5 times with a minimum interval of 20 s between measurements, and the mean value was calculated. Measurements that reached the cutoff time (20 s) were excluded.

IB4-binding DRG neurons = experiment: Whole-cell current-clamp recordings on sensitized DRG neurons; format: cell-based, mouse; settings: 50 µM
histamine H1 receptor = histamine H1 receptor (Homo sapiens, UniProt P35367); experiment: SafetyScreen44 panel; format: binding; design: purchased Eurofins Cerep P270; settings: 10 µM
histamine H1 receptor, sequence (P35367 whole entry): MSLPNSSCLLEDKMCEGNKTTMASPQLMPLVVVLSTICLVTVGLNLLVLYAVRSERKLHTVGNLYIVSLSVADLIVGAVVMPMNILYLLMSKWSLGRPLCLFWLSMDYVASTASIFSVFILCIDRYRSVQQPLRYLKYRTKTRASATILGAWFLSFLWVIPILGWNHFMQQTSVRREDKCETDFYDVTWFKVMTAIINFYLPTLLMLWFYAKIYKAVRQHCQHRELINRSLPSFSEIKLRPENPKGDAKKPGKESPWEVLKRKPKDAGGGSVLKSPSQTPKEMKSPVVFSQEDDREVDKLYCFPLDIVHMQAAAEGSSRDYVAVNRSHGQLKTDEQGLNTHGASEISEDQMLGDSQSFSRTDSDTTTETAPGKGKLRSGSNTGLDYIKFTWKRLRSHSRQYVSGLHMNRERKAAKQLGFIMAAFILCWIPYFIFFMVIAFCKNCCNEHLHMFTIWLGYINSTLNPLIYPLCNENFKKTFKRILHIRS
Description: (§2) Measurements were performed in duplicate.
(§3) channel, which were obtainedfrom ratspecimens).
(§4) in brackets) specific for each target.

muscarinic M1 receptor = target: T2, muscarinic M1 receptor (Homo sapiens, UniProt P11229); experiment: biochemical; settings: read-out: binding inhibition
T2 construct: purchased Eurofins Cerep P270
T2 sequence (P11229 whole entry): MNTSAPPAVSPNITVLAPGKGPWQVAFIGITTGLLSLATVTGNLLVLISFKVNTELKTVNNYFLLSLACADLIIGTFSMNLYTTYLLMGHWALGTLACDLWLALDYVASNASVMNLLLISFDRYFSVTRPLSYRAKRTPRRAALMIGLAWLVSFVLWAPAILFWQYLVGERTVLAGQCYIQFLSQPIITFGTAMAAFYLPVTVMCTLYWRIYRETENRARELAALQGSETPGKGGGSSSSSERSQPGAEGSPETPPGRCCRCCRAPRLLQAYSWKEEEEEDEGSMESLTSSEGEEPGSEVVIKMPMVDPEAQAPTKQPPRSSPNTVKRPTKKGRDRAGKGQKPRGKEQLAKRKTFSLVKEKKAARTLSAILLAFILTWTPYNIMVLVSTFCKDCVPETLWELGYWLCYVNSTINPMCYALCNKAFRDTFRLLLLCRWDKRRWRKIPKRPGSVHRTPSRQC
Description: as §2, §3, §4

muscarinic M3 receptor = target: T3, muscarinic M3 receptor (Homo sapiens, UniProt P20309); experiment: biochemical; settings: read-out: binding inhibition
T3 construct: purchased Eurofins Cerep P270
T3 sequence (P20309 whole entry): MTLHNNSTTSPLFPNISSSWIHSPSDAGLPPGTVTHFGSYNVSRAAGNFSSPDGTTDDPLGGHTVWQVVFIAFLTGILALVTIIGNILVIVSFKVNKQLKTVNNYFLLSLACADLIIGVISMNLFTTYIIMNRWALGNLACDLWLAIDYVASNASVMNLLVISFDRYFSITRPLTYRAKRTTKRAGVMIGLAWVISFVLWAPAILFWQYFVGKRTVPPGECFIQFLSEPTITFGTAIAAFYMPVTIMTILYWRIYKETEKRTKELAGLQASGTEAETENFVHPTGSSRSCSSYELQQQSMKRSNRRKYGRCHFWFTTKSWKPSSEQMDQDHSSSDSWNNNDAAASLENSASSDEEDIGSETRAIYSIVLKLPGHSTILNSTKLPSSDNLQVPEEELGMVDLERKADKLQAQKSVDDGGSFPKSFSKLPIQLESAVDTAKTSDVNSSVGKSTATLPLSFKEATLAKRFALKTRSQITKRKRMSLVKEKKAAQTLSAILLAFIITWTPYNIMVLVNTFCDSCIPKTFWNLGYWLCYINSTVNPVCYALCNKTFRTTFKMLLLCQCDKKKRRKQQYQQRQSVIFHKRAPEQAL
Description: as §2, §3, §4

histamine H2 receptor = histamine H2 receptor (Homo sapiens, UniProt P25021); experiment: SafetyScreen44 panel; settings: read-out: binding inhibition
Description: as §2, §3, §4

[7] = target: human ether-à-go-go (hERG) potassium channel (Homo sapiens, UniProt Q12809); experiment: SafetyScreen44 panel; settings: 10 µM
human ether-à-go-go (hERG) potassium channel, sequence (Q12809 whole entry): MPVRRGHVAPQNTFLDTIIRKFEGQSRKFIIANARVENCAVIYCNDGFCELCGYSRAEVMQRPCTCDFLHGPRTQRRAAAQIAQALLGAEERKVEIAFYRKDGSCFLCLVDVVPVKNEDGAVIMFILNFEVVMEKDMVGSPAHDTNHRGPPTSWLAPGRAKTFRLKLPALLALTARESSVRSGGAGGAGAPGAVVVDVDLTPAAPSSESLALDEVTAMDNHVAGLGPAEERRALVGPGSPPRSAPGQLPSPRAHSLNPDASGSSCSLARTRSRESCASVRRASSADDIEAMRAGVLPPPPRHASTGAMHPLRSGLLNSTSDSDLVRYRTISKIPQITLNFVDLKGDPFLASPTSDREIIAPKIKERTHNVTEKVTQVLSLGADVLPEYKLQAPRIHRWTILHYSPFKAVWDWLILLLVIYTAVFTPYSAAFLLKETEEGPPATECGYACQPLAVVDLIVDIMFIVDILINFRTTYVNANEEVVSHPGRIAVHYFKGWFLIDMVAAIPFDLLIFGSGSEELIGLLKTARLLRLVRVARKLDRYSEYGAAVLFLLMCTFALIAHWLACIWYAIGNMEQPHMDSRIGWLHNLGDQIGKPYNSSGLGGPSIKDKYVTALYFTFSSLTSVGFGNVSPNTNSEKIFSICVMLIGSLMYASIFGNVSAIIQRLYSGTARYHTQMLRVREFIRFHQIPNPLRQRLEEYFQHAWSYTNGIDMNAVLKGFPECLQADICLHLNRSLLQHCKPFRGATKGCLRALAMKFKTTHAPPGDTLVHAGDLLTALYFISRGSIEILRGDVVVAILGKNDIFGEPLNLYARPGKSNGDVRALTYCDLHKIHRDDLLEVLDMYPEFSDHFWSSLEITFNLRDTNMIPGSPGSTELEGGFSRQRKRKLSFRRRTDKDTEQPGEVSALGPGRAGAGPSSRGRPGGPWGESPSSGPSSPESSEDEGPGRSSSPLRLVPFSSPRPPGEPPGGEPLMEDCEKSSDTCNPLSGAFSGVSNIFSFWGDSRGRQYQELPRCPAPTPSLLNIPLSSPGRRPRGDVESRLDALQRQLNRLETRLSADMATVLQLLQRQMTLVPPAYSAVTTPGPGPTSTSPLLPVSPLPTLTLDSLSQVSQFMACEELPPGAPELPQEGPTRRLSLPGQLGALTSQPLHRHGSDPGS
Description: as §2, §3, §4

muscarinic M2 receptor = muscarinic M2 receptor (Homo sapiens, UniProt P08172); experiment: SafetyScreen44 panel; settings: read-out: binding inhibition
muscarinic M2 receptor, sequence (P08172 whole entry): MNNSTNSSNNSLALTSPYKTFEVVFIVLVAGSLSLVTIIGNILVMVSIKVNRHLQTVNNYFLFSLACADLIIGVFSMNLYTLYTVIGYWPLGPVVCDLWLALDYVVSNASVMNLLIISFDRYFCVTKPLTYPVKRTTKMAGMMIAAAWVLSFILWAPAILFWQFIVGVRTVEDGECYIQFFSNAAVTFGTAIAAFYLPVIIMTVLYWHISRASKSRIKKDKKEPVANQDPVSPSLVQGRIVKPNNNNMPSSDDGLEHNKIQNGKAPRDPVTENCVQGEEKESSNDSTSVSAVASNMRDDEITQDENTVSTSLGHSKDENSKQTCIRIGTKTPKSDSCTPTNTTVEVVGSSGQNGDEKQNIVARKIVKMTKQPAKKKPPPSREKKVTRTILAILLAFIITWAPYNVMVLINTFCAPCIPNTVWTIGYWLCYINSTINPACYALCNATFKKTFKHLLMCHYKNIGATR
Description: as §2, §3, §4

[8] = target: T4, serotonin 5-HT1A receptor (Homo sapiens, UniProt P08908); experiment: SafetyScreen44 panel; settings: read-out: binding inhibition
T4 construct: purchased Eurofins Cerep P270
T4 sequence (P08908 whole entry): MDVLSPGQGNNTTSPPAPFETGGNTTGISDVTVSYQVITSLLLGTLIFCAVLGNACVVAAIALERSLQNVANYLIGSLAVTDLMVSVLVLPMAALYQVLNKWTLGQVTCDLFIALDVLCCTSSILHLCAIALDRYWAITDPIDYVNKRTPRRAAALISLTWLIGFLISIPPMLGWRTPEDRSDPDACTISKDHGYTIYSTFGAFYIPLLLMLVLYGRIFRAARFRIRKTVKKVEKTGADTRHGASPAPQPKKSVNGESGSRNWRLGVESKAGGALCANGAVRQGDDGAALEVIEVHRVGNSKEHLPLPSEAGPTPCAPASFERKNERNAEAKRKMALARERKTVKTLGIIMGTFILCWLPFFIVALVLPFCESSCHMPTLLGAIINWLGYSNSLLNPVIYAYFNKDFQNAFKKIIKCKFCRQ
Description: as §2, §3, §4

[9] = target: T5, serotonin 5-HT1B receptor (Homo sapiens, UniProt P28222); experiment: SafetyScreen44 panel; settings: read-out: binding inhibition
T5 construct: purchased Eurofins Cerep P270
T5 sequence (P28222 whole entry): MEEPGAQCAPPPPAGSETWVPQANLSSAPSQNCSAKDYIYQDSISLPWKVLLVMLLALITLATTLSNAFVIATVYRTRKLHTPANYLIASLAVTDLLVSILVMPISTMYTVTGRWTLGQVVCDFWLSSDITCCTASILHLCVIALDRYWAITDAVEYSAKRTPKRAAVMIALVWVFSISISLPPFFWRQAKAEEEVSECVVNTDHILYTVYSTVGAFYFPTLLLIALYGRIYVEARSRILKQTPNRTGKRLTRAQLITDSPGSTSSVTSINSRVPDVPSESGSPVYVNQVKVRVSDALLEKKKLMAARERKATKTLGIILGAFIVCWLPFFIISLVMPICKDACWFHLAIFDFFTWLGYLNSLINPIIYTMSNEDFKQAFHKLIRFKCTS
Description: as §2, §3, §4

serotonin 5-HT3 receptor = serotonin 5-HT3 receptor (Homo sapiens, UniProt P46098); experiment: SafetyScreen44 panel; settings: read-out: binding inhibition
serotonin 5-HT3 receptor, sequence (P46098 24-478): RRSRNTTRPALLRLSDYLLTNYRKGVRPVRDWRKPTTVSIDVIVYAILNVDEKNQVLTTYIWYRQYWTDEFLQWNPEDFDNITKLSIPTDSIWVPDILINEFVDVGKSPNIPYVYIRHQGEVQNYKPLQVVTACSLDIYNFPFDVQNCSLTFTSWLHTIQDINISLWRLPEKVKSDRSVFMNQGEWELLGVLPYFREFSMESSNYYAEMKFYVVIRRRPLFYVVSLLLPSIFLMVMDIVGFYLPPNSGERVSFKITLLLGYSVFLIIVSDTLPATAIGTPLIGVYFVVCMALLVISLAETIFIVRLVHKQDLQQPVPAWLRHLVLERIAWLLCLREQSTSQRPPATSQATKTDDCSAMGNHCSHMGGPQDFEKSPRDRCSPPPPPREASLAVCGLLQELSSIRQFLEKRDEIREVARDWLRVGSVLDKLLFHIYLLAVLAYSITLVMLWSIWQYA
Description: as §2, §3, §4

Na+ channel = experiment: SafetyScreen44 panel; settings: 10 µM

T1 sequence (P14416 1-414 isoform P14416-2): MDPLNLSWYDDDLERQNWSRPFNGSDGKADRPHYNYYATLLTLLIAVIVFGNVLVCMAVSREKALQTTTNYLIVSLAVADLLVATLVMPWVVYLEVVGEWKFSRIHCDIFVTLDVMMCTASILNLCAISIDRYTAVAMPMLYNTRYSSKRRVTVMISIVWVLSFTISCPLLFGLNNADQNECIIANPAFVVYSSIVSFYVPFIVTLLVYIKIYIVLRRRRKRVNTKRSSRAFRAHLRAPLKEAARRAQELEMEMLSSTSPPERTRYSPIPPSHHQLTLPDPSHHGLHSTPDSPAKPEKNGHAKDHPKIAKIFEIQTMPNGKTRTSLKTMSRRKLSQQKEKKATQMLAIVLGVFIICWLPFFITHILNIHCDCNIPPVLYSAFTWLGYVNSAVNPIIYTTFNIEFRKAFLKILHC

O=C(O)COCCN1CCN(C2=Nc3ccccc3Oc3ccc(Cl)cc32)CC1 [Compound 6]
fold lower affinity against D2 as compared to loxapine (human D2S receptor): ≈ 40 fold
Ki (human D2S receptor; mean [CI 95%]): 1.28 µM
impairment of mouse behavior (mice [1]; 10 mg kg−1 i.p.): No obvious impairment of mouse behavior
overt signs of seizures (mice [1]; systemic administration, doses up to 30 mg kg−1): did not observe any overt signs of seizures
number of head shakes (mice [2]): significantly reduced
number of scratching bouts (mice [2]): significantly reduced
head shaking (mice [3]): significantly ameliorated
scratching (mice [3]): significantly ameliorated
breath rate (mice [4]): did not affect
heart rate (mice [4]): did not affect
mechanical sensitivity (von Frey filament test) (mice [5]): Neither mechanical nor thermal sensitivity was altered
thermal sensitivity (Hargreaves test) (mice [6]): Neither mechanical nor thermal sensitivity was altered
AP amplitude (IB4-binding DRG neurons; cells with recorded APs): Neither compound 6 nor the vehicle had a significant effect
AP duration at 90% repolarization (APD90) (IB4-binding DRG neurons; cells with recorded APs): Neither compound 6 nor the vehicle had a significant effect
resting membrane potential (RMP) (IB4-binding DRG neurons; current injection 200–950 pA): Neither compound 6 nor the vehicle significantly affected
number of AP fired (IB4-binding DRG neurons; current injection 200–950 pA, after inflammatory soup): profound decrease
rheobase compared to baseline (IB4-binding DRG neurons; in the 7 cells with recorded APs): visibly, but not significantly, increased
cells that elicited APs (IB4-binding DRG neurons; small currents (0–220 pA), vehicle 11 of 11): 7 of 13
binding inhibition (histamine H1 receptor): substantial binding

CN1CCN(C2=Nc3ccccc3Oc3ccc(Cl)cc32)CC1 [Loxapine, reference compound]
inhibition at 10 µM (muscarinic M1 receptor): > 50%
inhibition at 10 µM (muscarinic M3 receptor): > 50%
inhibition at 10 µM (histamine H2 receptor): > 50%
binding [7]: did not measurably bind
inhibition at 10 µM (muscarinic M2 receptor): > 50%
inhibition at 10 µM [8]: > 50%
inhibition at 10 µM [9]: > 50%
inhibition at 10 µM (serotonin 5-HT3 receptor): > 50%
binding inhibition (Na+ channel): higher than 50%
